Data published in the supplement of paper PMC10307832.

Tests used:
Experiment in all cases: relative viability (nuclei count vs DMSO), 5 days (fraction); higher = more cells survive
Vismodegib + Bortezomib = compound: CS(=O)(=O)c1ccc(C(=O)Nc2ccc(Cl)c(-c3ccccn3)c2)c(Cl)c1 [Vismodegib] + CC(C)C[C@H](NC(=O)[C@H](Cc1ccccc1)NC(=O)c1cnccn1)B(O)O [Bortezomib] (partner 0.002 µM)
Procedure, shortened: (§1)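 After 5 days of treatment, lung cancer cells in 1536-well plates were fixed and stained in a single step (final 0.05% Triton X-100, 1% formaldehyde, 1 ug/ml Hoechst) and their nuclei counted on 4× images. Treatment had been applied by pin tool the day after seeding as one drug alone or as a fixed anchor-drug dose with five library-drug doses (not always all listed) in √10 steps. Relative viability is the nuclei count of treated wells divided by that of vehicle wells, and values are medians of duplicate plates.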

VE-821 + Decitabine = compound: CS(=O)(=O)c1ccc(-c2cnc(N)c(C(=O)Nc3ccccc3)n2)cc1 [VE-821] + Nc1ncn([C@H]2C[C@H](O)[C@@H](CO)O2)c(=O)n1 [Decitabine] (partner 2 µM)
Procedure, shortened: as §1

Vismodegib + Foretinib = compound: CS(=O)(=O)c1ccc(C(=O)Nc2ccc(Cl)c(-c3ccccn3)c2)c(Cl)c1 [Vismodegib] + COc1cc2c(Oc3ccc(NC(=O)C4(C(=O)Nc5ccc(F)cc5)CC4)cc3F)ccnc2cc1OCCCN1CCOCC1 [Foretinib] (partner 0.25 µM)
Procedure, shortened: as §1

| Cell Line | relative viability (Vismodegib + Bortezomib; first compound 0.08 µM) | relative viability (Vismodegib + Bortezomib; first compound 0.253 µM) | relative viability (Vismodegib + Bortezomib; first compound 0.8 µM) | relative viability (Vismodegib + Bortezomib; first compound 2.53 µM) | relative viability (Vismodegib + Bortezomib; first compound 8 µM) | relative viability (VE-821 + Decitabine; first compound 0.08 µM) | relative viability (VE-821 + Decitabine; first compound 0.253 µM) | relative viability (VE-821 + Decitabine; first compound 0.8 µM) | relative viability (VE-821 + Decitabine; first compound 2.53 µM) | relative viability (VE-821 + Decitabine; first compound 8 µM) | relative viability (Vismodegib + Foretinib; first compound 0.08 µM) | relative viability (Vismodegib + Foretinib; first compound 0.253 µM) | relative viability (Vismodegib + Foretinib; first compound 0.8 µM) | relative viability (Vismodegib + Foretinib; first compound 2.53 µM) | relative viability (Vismodegib + Foretinib; first compound 8 µM) |
| --- | --- | --- | --- | --- | --- | --- | --- | --- | --- | --- | --- | --- | --- | --- | --- |
| NCI-H1915 | 1.05 | 0.976 | 0.985 | 0.905 | 0.953 | 0.284 | 0.262 | 0.312 | 0.266 | 0.318 | 1.02 | 1.06 | 1.05 | 1.05 | 1.08 |
| EMC-BAC-2 | 1.08 | 1.03 | 1.05 | 1.11 | 1.05 | 1.07 | 0.961 | 0.996 | 0.969 | 0.826 | 0.977 | 0.965 | 0.95 | 1 | 1.04 |
| 201T | 1.13 | 1.07 | 1.09 | 1.09 | 1.09 | 0.887 | 0.878 | 0.887 | 0.918 | 0.659 | 1.17 | 1.04 | 0.951 | 1.08 | 1.08 |
| NCI-H441 | 0.535 | 0.588 | 0.522 | 0.319 | 0.523 | 0.305 | 0.271 | 0.226 | 0.258 | 0.271 | 1.24 | 1.04 | 0.931 | 0.774 | 1.01 |
| NCI-H1437 | 0.408 | 0.597 | 0.594 | 0.541 | 0.539 | 0.579 | 0.488 | 0.593 | 0.598 | 0.497 | 1.23 | 1.22 | 1.25 | 1.21 | 1.26 |
| EPLC-272H | 0.988 | 0.783 | 0.864 | 1.14 | 0.723 | 0.395 | 0.359 | 0.404 | 0.408 | 0.345 | 0.787 | 0.727 | 0.68 | 0.785 | 0.776 |
| LOU-NH91 | 0.507 | 0.537 | 0.471 | 0.389 | 0.498 | 0.833 | 0.813 | 0.812 | 0.836 | 0.805 | 0.943 | 0.925 | 0.905 | 0.867 | 0.912 |
| ABC-1 | 0.332 | 0.244 | 0.331 | 0.299 | 0.324 | 1.13 | 0.974 | 0.809 | 0.903 | 0.989 | 0.894 | 1.15 | 1.14 | 1.08 | 1.23 |
| RERF-LC-KJ | 1.06 | 1.07 | 1.18 | 1.15 | 1.02 | 0.731 | 0.681 | 0.633 | 0.725 | 0.609 | 0.826 | 0.848 | 0.852 | 0.85 | 0.821 |
| NCI-H1975 | 0.381 | 0.396 | 0.374 | 0.373 | 0.398 | 0.4 | 0.38 | 0.358 | 0.381 | 0.324 | 0.993 | 0.996 | 0.933 | 0.832 | 0.964 |
| NCI-H661 | 0.821 | 0.806 | 0.756 | 0.837 | 0.829 | 0.61 | 0.568 | 0.648 | 0.628 | 0.602 | 1.07 | 1.02 | 0.99 | 0.961 | 1.09 |
| HOP-62 | 0.863 | 0.657 | 0.882 | 0.743 | 0.637 | 0.185 | 0.261 | 0.265 | 0.214 | 0.25 | 1.1 | 1.03 | 1.1 | 1.07 | 1.1 |
| HCC-15 | 0.978 | 1.07 | 0.938 | 1.09 | 1 | 0.74 | 0.726 | 0.69 | 0.954 | 0.766 | 1.01 | 0.964 | 1.04 | 1.09 | 1.04 |
| A-427 | 0.991 | 0.945 | 0.856 | 0.968 | 1.09 | 0.592 | 0.53 | 0.587 | 0.572 | 0.442 | 1 | 1.01 | 1.08 | 1.11 | 1.11 |
